We go through 3 compounds from patent US20090318342A1, “Compounds” (IMPERIAL INNOVATIONS LIMITED, priority 2005, published 2009).

Assay [1] has as its target soluble form of TACE (TACE R651) (Homo sapiens, UniProt P78536). Put plainly: Enzyme inhibition kinetic study, TACE. The class given is biochemical. The conditions noted are these: 0.5 nM TACE, pH 9.0, 1 mM NaCl; for Inhibition of TACE activity (in words): FIG. 2B. The protocol: FIG. 2. Inhibition of MMP and TACE by N-TIMP-3 and its mutants. A. Inhibition of MMP-14(CD) by wild-type and mutated N-TIMP-3. Open circles, wild-type N-TIMP-3; closed circles, T2G; and open squares, -1A. B. Comparison of the inhibition of TACE by wild-type N-TIMP-3, N-TIMP-1 and TAPI-2. The inhibitors were incubated with 0.5 nM TACE for 3 hr at room temperature, and the residual enzyme activity was measured with 10 μM Substrate III (R&D Systems). […] Open circles, N-TIMP-3; closed circles, TAPI-2; and open squares, N-TIMP-1. C. Inhibition of TACE (0.5 nM) by wild-type and mutated N-TIMP-3. Open circles, wild-type inhibitor; closed circles, T2G; and open squares, -1A.
Enzyme inhibition kinetic studies—Inhibition kinetic studies for MMPs and TACE were carried out as described previously (19, 27) with modifications. Purified N-TIMP-3 and mutants were dialyzed against 20 mM Tris-HCl (pH 7.0), 50 mM NaCl containing 20% glycerol, centrifuged at 14,000 rpm for 10 min to remove any precipitate, and protein concentration was re-measured before conducting inhibition assays. Since NaCl inhibits the activity of the TACE ectodomain in vitro (28), we adjusted the final concentration of NaCl to 1 mM in all assays with TACE. Equal volumes (10% of total assay volume) of diluted solutions of N-TIMP-3 and mutants were added to TACE assays, resulting in a final pH of 8.8.
where v is the experimentally determined reaction velocity, v0 is the uninhibited activity, E is enzyme concentration, I is inhibitor concentration, K is the apparent inhibition constant (Ki^(app)) and h is the Hill coefficient.
The inhibitory activities of the mutants were also compared with that of wild-type N-TIMP-3 against a soluble form of TACE in which the transmembrane and C-terminal cytoplasmic domains are deleted (TACE R651; (28)). […] The inhibition curve of TACE by wild-type N-TIMP-3 is sigmoid, in striking contrast with the inhibition by TAPI-2 and with the inhibition of MMPs by N-TIMP-3 and N-TIMP-1 (FIGS. 2A, 2B; (31)). Sigmoid inhibition curves were also obtained for TACE with the T2G and -1A mutants of N-TIMP-3 (FIG. 2C).

Assay [2] deals with bovine nasal cartilage explants. Nature of the assay: IL-1α-stimulated bovine nasal cartilage explants, GAG release. The conditions noted are these: 3 days. It is filed as cell-based. The protocol: (§1) GAG released into the conditioned media is measured in duplicate using a modification of the dimethylmethylene blue (DMMB) assay as described in Farndale et al.. Shark chondroitin sulfate (0-2.62 μg) is used as standard. The % of total GAG released into the medium is calculated as follows: % of total GAG released=(total GAG in the medium)/(total GAG in the medium+total GAG remaining in the cartilage).
Bovine nasal cartilage explants were stimulated with IL-1α in the presence or absence of N-TIMP-1, TIMP-2, or N-TIMP-3 for 3 days.

Another assay has as its system THP-1 cells. Nature of the assay: Inhibition of TNF-α shedding from THP-1 cells (ELISA). The conditions noted are these: 100 ng/ml PMA, 6 h, 50 to 500 nM. It is filed as cell-based, human. The protocol:
FIG. 3. Effects of mutations in N-TIMP-3 on inhibition of cellular shedding of TNF-α. THP-1 cells (2.5×10^6/ml) growing in serum-free RPMI-1640 medium were stimulated with 100 ng/ml PMA for 20 min before adding various concentrations of N-TIMP-3 (wild-type and mutants). Cells were allowed to grow for another 6 hr and conditioned media were collected for the ELISA assays.
Inhibition of TNF-α shedding from THP-1 cells—All TIMP solutions were dialyzed against 20 mM Tris-HCl (pH 7.0), 150 mM NaCl and 20% glycerol before use. Human monocyte THP-1 cells cultured in RPMI-1640 medium supplemented with 5% fetal calf serum were harvested, extensively washed and reseeded into serum-free medium at 2.5×10^6 cells/ml. […] The amount of soluble TNF-α released into the medium was measured using sandwich enzyme-linked immunosorbent assay, as described by Engelberts et al. (30) with modifications. The released TNF-α was absorbed to microtiter plates coated with mouse monoclonal anti-human TNF-α antibody BD551220 (1:200 dilution), and the bound TNF-α was detected using biotinylated mouse monoclonal anti-human TNF-α: antibody BD554511 (1:500 dilution) and streptavidin conjugated with horse radish peroxidase, and 3,3′,5,5′-tetramethylbenzidine as peroxidase substrate (KPL, Guildford, UK). The plates were read at 450 nm with an ELX808 plate reader (BIO-TEK Instruments Inc). […]
A general note: An ELISA detects its analyte on a solid surface through an enzyme-linked reagent.

Assay [3] deals with aggrecanase activity in IL-1α- and retinoic acid-stimulated cartilage. Put plainly: Aggrecanase-generated aggrecan fragments in cartilage conditioned media, Western analysis. The class given is cell-based. The conditions noted are these: 1 μM. From the text: Aggrecan fragments released into the conditioned medium are deglycosylated by digestion with chondroitinase ABC and keratanase and the samples are subjected to SDS/PAGE and Western blotting analysis as described by Little et al.. The primary antibodies used to detect aggrecanase-generated and MMP-generated aggrecan fragments are BC-3 and BC-14, respectively. Antigen-antibody complexes are detected by anti-mouse AP-linked donkey antibody and the AP substrate.
Conditioned media from the above experiments were analyzed by monoclonal antibodies that recognize either the aggrecanase-generated aggrecan neoepitope ARGSV or the MMP-generated aggrecan neoepitope FFGVG. In concordance with GAG release, there was an increase in the amount of aggrecanase-generated aggrecan fragments released upon treatment with either stimulus, but no MMP-generated fragments were detected.

Assay [4] deals with porcine articular cartilage. Nature of the assay: Retinoic acid-stimulated porcine articular cartilage, GAG release. It is filed as cell-based. The protocol: Porcine articular cartilage from the metacarpophalangeal joints of 3-9 month old pigs is dissected into small shavings approximately 3 mm long and 2-3 mm wide. After dissection, the cartilage is allowed to rest for 24 h at 37° C. under 5% CO2 in DMEM containing penicillin-streptomycin, amphotericin B, and 5% fetal calf serum. The medium is then replaced with fresh media and the cartilage is rested for a further 24-48 h. Each cartilage piece is then placed in one well of a round bottom 96-well plate with 200 μl of serum-free DMEM with or without 10-100 ng/ml IL-1α or 1 μM retinoic acid and various concentrations of each TIMP-3 mutant. After 3 days, all of the conditioned media are harvested and stored at −20° C. until use.
as §1

For assay [5], the system named is porcine articular cartilage. Put plainly: IL-1α-stimulated porcine articular cartilage degradation, GAG release (DMMB). The class given is cell-based. The conditions noted are these: IL-1α 10 ng/ml, 3 days. As for the experimental part:
FIG. 7. Inhibition of IL-1a stimulated porcine articular cartilage degradation by N-terminal mutants of N-TIMP-3. Porcine articular cartilage pieces were cultured for three days. Cartilage was stimulated with IL-1α (10 ng/ml) with TIMPs at the concentrations indicated. Glycosaminoglycan (GAG) release in the media was measured by dimethyl methylene blue (DMMB).
Porcine articular cartilage from the metacarpophalangeal joints of 3-9 month old pigs is dissected into small shavings approximately 3 mm long and 2-3 mm wide. After dissection, the cartilage is allowed to rest for 24 h at 37° C. under 5% CO2 in DMEM containing penicillin-streptomycin, amphotericin B, and 5% fetal calf serum. The medium is then replaced with fresh media and the cartilage is rested for a further 24-48 h. […]
GAG released into the conditioned media is measured in duplicate using a modification of the dimethylmethylene blue (DMMB) assay as described in Farndale et al.. […] The % of total GAG released into the medium is calculated as follows: % of total GAG released=(total GAG in the medium)/(total GAG in the medium+total GAG remaining in the cartilage).
Porcine articular cartilage pieces were cultured for 3 days. […] Glycosaminoglycan (GAG) release in the media was measured by dimethyl methylene blue (DMMB).

Chain of soluble form of TACE (TACE R651) (P78536 215-651): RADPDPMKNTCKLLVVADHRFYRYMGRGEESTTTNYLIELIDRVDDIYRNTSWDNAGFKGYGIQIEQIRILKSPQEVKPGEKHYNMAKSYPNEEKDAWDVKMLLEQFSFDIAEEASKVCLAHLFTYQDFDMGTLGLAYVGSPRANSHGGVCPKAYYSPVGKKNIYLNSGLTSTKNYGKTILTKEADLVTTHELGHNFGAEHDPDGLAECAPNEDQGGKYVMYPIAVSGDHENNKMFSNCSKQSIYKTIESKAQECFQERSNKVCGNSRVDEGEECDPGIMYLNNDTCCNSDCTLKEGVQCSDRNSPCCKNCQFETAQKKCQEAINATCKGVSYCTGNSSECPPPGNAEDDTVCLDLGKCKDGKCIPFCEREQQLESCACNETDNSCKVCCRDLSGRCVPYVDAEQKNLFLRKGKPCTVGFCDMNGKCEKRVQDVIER

Regarding `CC(C)CC(CC(=O)NO)C(=O)NC(C(=O)NC(C)C(=O)NCCN)C(C)(C)C` (stereo not drawn) [TAPI-2, HONHCOCH2CH(CH2CH(CH3)2)—CO-t-Butyl-Gly-Ala-NHCH2CH2NH2, reference compound], the “Inhibition of TACE activity (in words)” value in assay [1] is recorded as “effectively inhibited”. Further, the “h (Hill coefficient) for TACE inhibition” value in assay [1] (Table II, fit with equation 3) was 1. Moreover, the Ki in assay [1] (Table II, fit with equation 3, read-out: Ki(app) TACE) stood at 4.28 ± 0.001 nM.

On to “N-TIMP-1: N-terminal inhibitory domain of TIMP-1, expressed in E. coli and folded in vitro [reference compound]”, for which the “Inhibition of IL-1α-stimulated GAG release” value in assay [2] is reported as “not effective even at the concentration of 1 μM”. Moreover, the “Inhibition of PMA-stimulated release of TNF-α” value in the assay on THP-1 cells is reported as “no effect”. Moreover, the “Release of aggrecanase-generated aggrecan fragments” value in assay [3] is “not effective”. In assay [1], the “Inhibition of TACE activity (in words)” value is recorded as “minimal inhibitory activity”. In assay [4], the “Inhibition of retinoic acid-stimulated GAG release” value is “did not inhibit”.

On to “TIMP-1: tissue inhibitor of metalloproteinases-1 [reference compound]”, for which the “Inhibition of IL-1α stimulated cartilage degradation (GAG release)” value in assay [5] is “did not”.
